{"source": "patent US20240336608A1", "about": "“IL4I1 INHIBITORS AND METHODS OF USE” (Merck Sharp & Dohme LLC, priority 2023, published 2024)", "note": "pEC50: −log10 of the molar value.", "data": [{"biological_target": "T1, recombinant IL4I1 (Homo sapiens, UniProt Q96RQ9)", "T1 construct": "purchased R&D Systems 5684-AO-020", "T1 sequence (Q96RQ9 22-567)": "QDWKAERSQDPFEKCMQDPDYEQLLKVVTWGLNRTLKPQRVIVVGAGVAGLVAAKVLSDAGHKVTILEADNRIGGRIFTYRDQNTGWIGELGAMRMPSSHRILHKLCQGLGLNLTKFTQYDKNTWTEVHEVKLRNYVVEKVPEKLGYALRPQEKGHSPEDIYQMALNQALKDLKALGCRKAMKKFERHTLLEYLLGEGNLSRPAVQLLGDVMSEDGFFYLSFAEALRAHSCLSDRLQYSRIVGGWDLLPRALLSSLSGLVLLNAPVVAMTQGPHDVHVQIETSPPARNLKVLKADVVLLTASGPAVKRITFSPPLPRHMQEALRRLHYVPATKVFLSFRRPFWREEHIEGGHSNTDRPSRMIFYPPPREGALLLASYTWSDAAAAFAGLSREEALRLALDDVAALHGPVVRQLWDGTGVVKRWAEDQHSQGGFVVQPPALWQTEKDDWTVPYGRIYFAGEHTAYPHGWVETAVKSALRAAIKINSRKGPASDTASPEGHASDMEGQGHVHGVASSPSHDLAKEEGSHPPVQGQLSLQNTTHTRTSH", "test": "IL4I1 Enzymatic Assay (Amplex Red/HRP coupled detection of H2O2, fluorescence)", "type": "biochemical", "conditions": "1 nM recombinant IL4I1; four-hour pre-incubation with compound; 1 mM each Phe, Tyr, Trp; ten-point titration", "summary_of_the_method": "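Recombinant IL4I1 (1 nM final) pre-incubated 4 h at ambient temperature with compound (0.5% DMSO) in 50 mM Hepes pH 7.0, 0.005% Tween20; reaction started with 1 mM each Phe/Tyr/Trp plus excess Amplex Red/HRP, run 120 min. H2O2 read as resorufin fluorescence; EC50 from 10-point four-parameter fit.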", "values": [{"compound": "O=C(NCc1nnc(-c2ccccc2)s1)c1cn(C[C@H]2CCCO2)nn1", "note": "[Example 179, (R)-N-((5-phenyl-1,3,4-thiadiazol-2-yl)methyl)-1-((tetrahydrofuran-2-yl)methyl)-1H-1,2,3-triazole-4-carboxamide]", "pEC50": 6.62}, {"compound": "O=C(NCc1nnc(-c2ccccc2)s1)c1cn(-c2cn[nH]c2)nn1", "note": "[Example 287, N-((5-phenyl-1,3,4-thiadiazol-2-yl)methyl)-1-(1H-pyrazol-4-yl)-1H-1,2,3-triazole-4-carboxamide]", "pEC50": 8.05}, {"compound": "CC(C)(O)c1cc(C(=O)NCc2nnc(-c3ccccc3)s2)no1", "note": "[Example 317, 5-(2-hydroxypropan-2-yl)-N-((5-phenyl-1,3,4-thiadiazol-2-yl)methyl)isoxazole-3-carboxamide]", "pEC50": 7.68}, {"compound": "O=C(NCc1nnc(-c2ccccc2)s1)c1cn(CC2(O)COC2)nn1", "note": "[Example 140, 1-((3-hydroxyoxetan-3-yl)methyl)-N-((5-phenyl-1,3,4-thiadiazol-2-yl)methyl)-1H-1,2,3-triazole-4-carboxamide]", "pEC50": 8.00}, {"compound": "Cn1cc(C(=O)NCc2cc(-c3ccc(Cl)cc3)no2)nn1", "note": "[Example 217, N-{[3-(4-chlorophenyl)-1,2-oxazol-5-yl]methyl}-1-methyl-1H-1,2,3-triazole-4-carboxamide]", "pEC50": 6.19}, {"compound": "O=C(NCc1nnc(-c2ccccc2)s1)c1cn([C@H]2COC[C@@H]2O)nn1", "note": "[Example 189, 1-((3S,4R)-4-hydroxytetrahydrofuran-3-yl)-N-((5-phenyl-1,3,4-thiadiazol-2-yl)methyl)-1H-1,2,3-triazole-4-carboxamide]", "pEC50": 6.97}, {"compound": "O=C(NCc1nnc(-c2ccccc2)s1)c1cn(Cc2cc[nH]n2)nn1", "note": "[Example 156, 1-((1H-pyrazol-3-yl)methyl)-N-((5-phenyl-1,3,4-thiadiazol-2-yl)methyl)-1H-1,2,3-triazole-4-carboxamide]", "pEC50": 8.10}, {"compound": "Cc1ccc(-n2cc(C(=O)NC(C)c3nnc(-c4ccccc4)s3)nn2)c(C)n1", "note": "(single isomer, unassigned) [Example 263, 1-(2,6-dimethylpyridin-3-yl)-N-(1-(5-phenyl-1,3,4-thiadiazol-2-yl)ethyl)-1H-1,2,3-triazole-4-carboxamide]", "pEC50": 7.48}, {"compound": "Cc1ccc(-n2cc(C(=O)NCc3ccc(-n4ccnn4)nn3)nn2)c(C)n1", "note": "(single isomer, unassigned) [Example 345, N-((6-(1H-1,2,3-triazol-1-yl)pyridazin-3-yl)methyl)-1-(2,6-dimethylpyridin-3-yl)-1H-1,2,3-triazole-4-carboxamide]", "pEC50": 6.76}, {"compound": "Cc1ccc(C(=O)NCc2nnc(-c3ccccc3)s2)[nH]1", "note": "[Example 17, 5-methyl-N-[(5-phenyl-1,3,4-thiadiazol-2-yl)methyl]-1H-pyrrole-2-carboxamide]", "pEC50": 6.32}, {"compound": "Cn1cc(-n2cc(C(=O)NCc3nnc(-c4ccccc4)s3)nn2)cn1", "note": "[Example 288, 1-(1-methyl-1H-pyrazol-4-yl)-N-((5-phenyl-1,3,4-thiadiazol-2-yl)methyl)-1H-1,2,3-triazole-4-carboxamide]", "pEC50": 7.41}, {"compound": "O=C(NCc1nnc(-c2ccncc2)s1)c1cn(C2CC2)nn1", "note": "[Example 243, 1-cyclopropyl-N-((5-(pyridin-4-yl)-1,3,4-thiadiazol-2-yl)methyl)-1H-1,2,3-triazole-4-carboxamide]", "pEC50": 7.64}, {"compound": "COCc1ccc(C(=O)NCc2nnc(-c3ccccc3)s2)o1", "note": "[Example 45, 5-(methoxymethyl)-N-[(5-phenyl-1,3,4-thiadiazol-2-yl)methyl]furan-2-carboxamide]", "pEC50": 6.26}, {"compound": "C[C@H](O)Cn1cc(C(=O)NCc2nnc(-c3ccccc3)s2)nn1", "note": "[Example 128, (S)-1-(2-hydroxypropyl)-N-((5-phenyl-1,3,4-thiadiazol-2-yl)methyl)-1H-1,2,3-triazole-4-carboxamide]", "pEC50": 7.57}, {"compound": "O=C(NCc1nnc(-c2ccccc2)s1)c1cn([C@H]2CCC[C@@H]2O)nn1", "note": "[Example 209, 1-((1S,2S)-2-hydroxycyclopentyl)-N-((5-phenyl-1,3,4-thiadiazol-2-yl)methyl)-1H-1,2,3-triazole-4-carboxamide]", "pEC50": 6.84}, {"compound": "Cc1n[nH]c(C(=O)NCc2nnc(-c3ccccc3)s2)n1", "note": "[Example 27, 3-methyl-N-((5-phenyl-1,3,4-thiadiazol-2-yl)methyl)-1H-1,2,4-triazole-5-carboxamide]", "pEC50": 6.53}, {"compound": "O=C(NCc1nnc(-c2ccccc2)s1)c1cn(CC(O)CO)nn1", "note": "(stereo not shown) [Example 191, 1-(2,3-dihydroxypropyl)-N-((5-phenyl-1,3,4-thiadiazol-2-yl)methyl)-1H-1,2,3-triazole-4-carboxamide]", "pEC50": 7.92}, {"compound": "O=C(NCc1nnc(-c2ccccc2)s1)c1cn(CC(O)C(F)(F)F)nn1", "note": "(stereo not shown) [Example 127, N-((5-phenyl-1,3,4-thiadiazol-2-yl)methyl)-1-(3,3,3-trifluoro-2-hydroxypropyl)-1H-1,2,3-triazole-4-carboxamide]", "pEC50": 7.14}, {"compound": "O=C(NCc1nnc(-c2ccccc2)s1)c1cn(C2C[C@@H]2C(F)F)nn1", "note": "(single isomer, unassigned) [Example 143, Trans-1-(-2-(difluoromethyl)cyclopropyl]-N-[(5-phenyl-1,3,4-thiadiazol-2-yl)methyl]-1H-1,2,3-triazole-4-carboxamide]", "pEC50": 6.75}, {"compound": "CC(C(N)=O)n1cc(C(=O)NCc2nnc(-c3ccccc3)s2)nn1", "note": "(single isomer, unassigned) [Example 319, 1-(1-amino-1-oxopropan-2-yl)-N-((5-phenyl-1,3,4-thiadiazol-2-yl)methyl)-1H-1,2,3-triazole-4-carboxamide]", "pEC50": 8.10}, {"compound": "O=C(NCc1nnc(-c2ccccc2)s1)c1cn(C2C3COCC32)nn1", "note": "(stereo not shown) [Example 200, 1-(3-oxabicyclo[3.1.0]hexan-6-yl)-N-((5-phenyl-1,3,4-thiadiazol-2-yl)methyl)-1H-1,2,3-triazole-4-carboxamide]", "pEC50": 6.27}, {"compound": "Cc1ccc(-n2cc(C(=O)NCc3cc(-c4ccccc4Cl)on3)nn2)c(C)n1", "note": "[Example 222, N-{[5-(2-chlorophenyl)-1,2-oxazol-3-yl]methyl}-1-(2,6-dimethylpyridin-3-yl)-1H-1,2,3-triazole-4-carboxamide]", "pEC50": 6.76}, {"compound": "CC(C)(C)Cn1cc(C(=O)NCc2nnc(-c3ccccc3)s2)nn1", "note": "[Example 86, 1-neopentyl-N-((5-phenyl-1,3,4-thiadiazol-2-yl)methyl)-1H-1,2,3-triazole-4-carboxamide]", "pEC50": 7.38}, {"compound": "Cc1ccc(-n2cc(C(=O)NCc3ccc(-c4ccccc4F)nn3)nn2)c(C)n1", "note": "[Example 116, 1-(2,6-dimethylpyridin-3-yl)-N-((6-(2-fluorophenyl)pyridazin-3-yl)methyl)-1H-1,2,3-triazole-4-carboxamide]", "pEC50": 7.13}, {"compound": "O=C(NCc1nnc(-c2ccccc2)s1)c1cn(CCO)nn1", "note": "[Example 233, 1-(2-hydroxyethyl)-N-((5-phenyl-1,3,4-thiadiazol-2-yl)methyl)-1H-1,2,3-triazole-4-carboxamide]", "pEC50": 8.00}, {"compound": "Cc1cc(C(=O)NCc2nnc(-c3ccccc3)s2)ns1", "note": "[Example 260, 5-methyl-N-((5-phenyl-1,3,4-thiadiazol-2-yl)methyl)isothiazole-3-carboxamide]", "pEC50": 7.16}, {"compound": "O=C(NCc1nnc(-c2ccccc2)s1)c1cn(CC2CCOC2)nn1", "note": "(stereo not shown) [Example 129, N-((5-phenyl-1,3,4-thiadiazol-2-yl)methyl)-1-((tetrahydrofuran-3-yl)methyl)-1H-1,2,3-triazole-4-carboxamide]", "pEC50": 6.91}, {"compound": "Cn1cc(C(=O)NCc2cc(-c3ccccc3Cl)on2)nn1", "note": "[Example 225, N-{[5-(2-chlorophenyl)-1,2-oxazol-3-yl]methyl}-1-methyl-1H-1,2,3-triazole-4-carboxamide]", "pEC50": 6.07}, {"compound": "CCCc1cc(C(=O)NCc2nnc(-c3ccccc3)s2)no1", "note": "[Example 39, N-[(5-phenyl-1,3,4-thiadiazol-2-yl)methyl]-5-propyl-isoxazole-3-carboxamide]", "pEC50": 8.52}, {"compound": "O=C(NCc1nnc(-c2ccccc2)s1)c1cn(C2COC2)nn1", "note": "[Example 67, 1-(oxetan-3-yl)-N-((5-phenyl-1,3,4-thiadiazol-2-yl)methyl)-1H-1,2,3-triazole-4-carboxamide]", "pEC50": 7.85}, {"compound": "CC(c1ccno1)n1cc(C(=O)NCc2nnc(-c3ccccc3)s2)nn1", "note": "(stereo not shown) [Example 155, 1-(1-(isoxazol-5-yl)ethyl)-N-((5-phenyl-1,3,4-thiadiazol-2-yl)methyl)-1H-1,2,3-triazole-4-carboxamide]", "pEC50": 7.89}, {"compound": "O=C(NCc1nnc(-c2ccccc2)s1)c1cn(CC2(O)CC2)nn1", "note": "[Example 136, 1-((1-hydroxycyclopropyl)methyl)-N-((5-phenyl-1,3,4-thiadiazol-2-yl)methyl)-1H-1,2,3-triazole-4-carboxamide]", "pEC50": 7.54}, {"compound": "CC1(n2cc(C(=O)NCc3nnc(-c4ccccc4)s3)nn2)CS(=O)(=O)C1", "note": "[Example 178, 1-(3-methyl-1,1-dioxidothietan-3-yl)-N-((5-phenyl-1,3,4-thiadiazol-2-yl)methyl)-1H-1,2,3-triazole-4-carboxamide]", "pEC50": 6.57}, {"compound": "O=C(NCc1nnc(-c2ccccc2)s1)c1cn([C@@H]2COC[C@@H]2F)nn1", "note": "[Example 198, 1-((3R,4R)-4-fluorotetrahydrofuran-3-yl)-N-((5-phenyl-1,3,4-thiadiazol-2-yl)methyl)-1H-1,2,3-triazole-4-carboxamide]", "pEC50": 7.77}]}]}
